Measurements published in PMC8316002, “Inhibition of Escherichia coli Lipoprotein Diacylglyceryl Transferase Is Insensitive to Resistance Caused by Deletion of Braun’s Lipoprotein” (Journal of Bacteriology, 2021).

Legend:
cells expressing lppΔK = assay: Time-kill, CFT073 imp4213 Δlpp complemented with lpp or lppΔK; assay type: cell-based, E. coli; settings: 12.5 μM G2824 or 3.2 μM globomycin; CFU; lppΔK (unable to link to PGN) versus WT lpp
Description: To determine if loss of PGN linkage of Lpp leads to increased G2824 bactericidal activity, we treated CFT073 imp4213 Δlpp cells complemented with either WT lpp or a mutant form that is unable to covalently link to PGN (lppΔK). Using the previously described SDS fractionation protocol, we confirmed that while WT Lpp localized to both PAP and non-PAP fractions, the LppΔK mutant was primarily detected in the non-PAP fraction (see Fig. S5A). As we noted earlier, PGN-linked DGPLP (§) and other PGN-linked Lpp forms (†) were primarily detectable in the PAP fraction (Fig. S5A).
Unless stated otherwise, E. coli cells were grown in Luria-Bertani (LB) medium (0.5% yeast extract, 1% tryptone, 0.5% NaCl) at 37°C. […] Growth of MG1655 inducible deletion strains was measured by culturing in the presence of 2-fold dilutions of arabinose (starting arabinose concentrations for CFT073 and MG1655 inducible deletion strains were 4% and 0.8%, respectively). While 2% arabinose was sufficient for WT growth of MG1655 Δlgt, 4% arabinose was used for CFT073 Δlgt based on comparing its growth to that of WT CFT073 as measured by CFU. OD600 growth measurements were performed using an EnVision 2101 multilabel reader plate reader (PerkinElmer) linked with Echo liquid handler (Labcyte). […] Bacterial viability at different time points during the treatment was measured by enumerating CFU. […]

LspA = LspA inhibitor globomycin; cited from earlier work
Description: Using a combination of biochemical and genetic strategies, we believe the Lgt inhibitor G2824 identified in this study inhibits bacterial cell growth through inhibition of the diacylglyceryl transferase activity of Lgt. First, G2824 was identified using a specific Lgt binding assay and confirmed to inhibit Lgt enzymatic function in vitro. Second, the results generated from pharmacologic inhibition of Lgt by G2824 in both CFT073 and MG1655 E. coli strains are highly consistent with the genetic depletion of Lgt, strongly arguing against off-target effects as a main cause of G2824 bactericidal ac ...

CFT073 imp4213 = assay: Western blot of Lpp forms; assay type: cell-based, E. coli; settings: 0.5× MIC, 30 min
Description: Bacterial cell samples normalized for equivalent OD600 and resuspended in BugBuster lysis buffer (Fischer Scientific) with the addition of sample buffer (LI-COR), and proteins were separated by SDS-PAGE using 16% Tricine protein gels or NuPAGE 4% to 20% bis-Tris gels (Thermo Fisher Scientific), transferred to nitrocellulose membranes using the iBlot 2 dry blotting system (Invitrogen), and blocked using LI-COR blocking buffer for 30 min. Unless stated otherwise, loading buffer with reducing agents was added and samples were not boiled prior to SDS-PAGE. For the sucrose gradient centrifugation, samples were boiled prior to running the SDS-PAGE. Primary antibodies were used at a final concentration of 1 μg/ml with some exceptions: rabbit anti-Lpp polyclonal antibody (0.1 μg/ml), murine anti-Pal 6D7 antibody (0.5 μg/ml), rabbit anti-GroEL antibody (1:10,000 final dilution), and rabbit anti-OmpA antibody (1:50,000 final dilution). The secondary antibodies were all obtained from LI-COR and used as per manufacturer’s instructions. Images were collected using the Odyssey CLx imaging system (LI-COR) and analyzed by Image Studio Lite.

CCCCCC[C@H]1OC(=O)CNC(=O)[C@H]([C@H](C)O)NC(=O)[C@H](CO)NC(=O)[C@H]([C@H](C)CC)NC(=O)[C@H](CC(C)C)N(C)C(=O)[C@@H]1C [Globomycin]
effect of lppΔK on bactericidal killing (cells expressing lppΔK): completely resistant
on-target resistance mutations (LspA): no on-target resistance mutations have ever been identified
accumulation of Lpp forms (CFT073 imp4213): accumulation of DGPLP and other PGN-linked Lpp forms
